From PMC3788091 (Journal of controlled release : official journal of the …, 2013)

How the values were obtained:
[1] = two compartment model, nonlinear regression fit
[2] = man and rodents; cited from earlier work
in vivo = conditions: Sprague Dawley, rat, intravenous, 10 mg DTX equivalent/kg
[3] = rat, in vivo
[4] = rat, in vivo; remark: listed apart in the source
[5] = rat, in vivo; remark: listed apart in the source

Molecule: CC(=O)O[C@@]12CO[C@@H]1C[C@H](O)[C@@]1(C)C(=O)[C@H](O)C3=C(C)[C@@H](OC(=O)[C@H](O)[C@@H](NC(=O)OC(C)(C)C)c4ccccc4)C[C@@](O)([C@@H](OC(=O)c4ccccc4)[C@H]21)C3(C)C [DTX, Docetaxel]
- CLD (distribution clearance) [1]: 2202 mL/h
- VC (volume of the central compartment) [1]: 760 mL
- VP (volume of the peripheral compartment) [1]: 5811 mL
- Vmax (nonlinear clearance, all remaining routes) [1]: 391464 ng/h
- renal clearance contribution to DTX clearance [2]: < 10%
- clearance (in vivo; plasma and bile): 3.53 mL/min
- Km (in vivo; plasma): 0.124 µg/mL

Molecule: Taxotere
- tissue distribution phase half-life (t1/2) [3]: ~ 30 min
- CL ([3]; iv): 86.7 mL/min/kg
- V (apparent volume of distribution) ([3]; iv): 3.401 L/kg
- t1/2 (terminal elimination half-life) ([3]; iv): 3 h
- percentage of the total 8h biliary metabolites excreted as HDTX (%HDTX) [4]: 82±12%
- cumulative 24h urinary DTX excretion [5]: 2.36 ± 0.98 % injected dose
